Structures are written as SMILES.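 Step 1: Grow cells in 96-well plates. Step 2: Expose to compound for 48 hours at 5 concentrations. Step 3: Interpolate endpoints linearly; if unreached, use highest concentration. GI50 = concentration required for 50% inhibition of growth. TGI: concentration producing complete growth inhibition.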

Some test systems named below: NCI-H460 lung; COLO 205 colon; LOX IMVI melanoma; SNB-19 CNS; OVCAR-4 ovarian; DMS 114 small cell lung; RPMI-8226 leukemia; LXFL 529 NSCLC; NCI-H522 lung; MCF7 breast.
What all share (assay): growth of human tumour cells (NCI), 48 h

Turning to `COC(=O)C1=C(O)c2cc3c(cc2[C@H](c2cc(OC)c(OC)c(OC)c2)C1)OCO3`, the TGI in the experiment with NCI-H460 lung was over 100 µM; in the experiment on COLO 205 colon, 34.7 µM; in the experiment on LOX IMVI melanoma, over 100 µM; in the experiment with SNB-19 CNS, over 100 µM; in the experiment with OVCAR-4 ovarian, over 100 µM; in the experiment on DMS 114 small cell lung it was over 100 µM. Further, the TGI in the experiment with RPMI-8226 leukemia and in the experiment on LXFL 529 NSCLC was over 100 µM throughout.

Take `COc1ccc(/C=C2\CCc3ccccc3C2=O)cc1OC`: the TGI was 47 µM in the experiment with NCI-H522 lung; over 100 µM with NCI-H460 lung; 47.2 µM in the experiment on COLO 205 colon; over 100 µM with SNB-19 CNS; 79.6 µM with OVCAR-4 ovarian; 47.1 µM in the experiment with DMS 114 small cell lung. Further, the TGI with RPMI-8226 leukemia was 64.8 µM; with LXFL 529 NSCLC, over 100 µM.

For `C/C=C(\C)C(=O)N1c2ccccc2CC1c1c(C)[nH]c2ccccc12` (stereo not drawn), the TGI is over 100 µM in the experiment with NCI-H522 lung; over 100 µM in the experiment on NCI-H460 lung; 74.5 µM with COLO 205 colon; over 100 µM in the experiment with LOX IMVI melanoma; over 100 µM in the experiment on SNB-19 CNS; over 100 µM in the experiment with OVCAR-4 ovarian. In addition, the TGI in the experiment on RPMI-8226 leukemia and in the experiment with LXFL 529 NSCLC was over 100 µM throughout.

Regarding `C/C(=N\NS(=O)(=O)c1c(C)cc(C)cc1C)c1ccc[n+]([O-])n1`, the TGI in the experiment with NCI-H522 lung is 21 µM; in the experiment with NCI-H460 lung it was over 100 µM; in the experiment with SNB-19 CNS, over 100 µM; in the experiment with OVCAR-4 ovarian, 44.6 µM; with DMS 114 small cell lung, 36.8 µM; in the experiment on RPMI-8226 leukemia it was 31.4 µM. In the experiment with LXFL 529 NSCLC, this molecule showed a TGI of 23.4 µM.

With `COc1ccc2c(c1)c(-c1ccc(-c3cn(C)c4ccc(OC)cc34)o1)cn2C`, the GI50 was 3.42 µM with NCI-H522 lung; 9.89 µM in the experiment with NCI-H460 lung; 5.13 µM with COLO 205 colon; 10.4 µM in the experiment with LOX IMVI melanoma; 29.8 µM in the experiment with SNB-19 CNS; 2.06 µM in the experiment with OVCAR-4 ovarian. For the same molecule, the GI50 was 17.3 µM in the experiment with MCF7 breast and 2.25 µM with RPMI-8226 leukemia. Also, the TGI is 10 µM in the experiment with NCI-H522 lung; over 100 µM with NCI-H460 lung; 31.1 µM in the experiment with COLO 205 colon; over 100 µM with LOX IMVI melanoma; over 100 µM with SNB-19 CNS; 4.08 µM in the experiment on OVCAR-4 ovarian. Besides, the TGI in the experiment on MCF7 breast was over 100 µM; in the experiment with RPMI-8226 leukemia, 5.07 µM.

With `O=C1c2ccccc2-c2c1c1ccc([N+](=O)[O-])cc1c(=O)n2CCCn1ccnc1`, the GI50 with NCI-H522 lung is 1.08 µM; in the experiment on NCI-H460 lung it was under 0.0275 µM; in the experiment on COLO 205 colon, 4.57 µM; in the experiment with LOX IMVI melanoma, 0.152 µM; with SNB-19 CNS, 0.358 µM; in the experiment on OVCAR-4 ovarian it was 0.943 µM. Also, the results for the GI50 in the experiment with MCF7 breast and in the experiment with RPMI-8226 leukemia were under 0.018 µM and 0.0153 µM, respectively. Also, the TGI is 5.68 µM in the experiment on NCI-H522 lung; 7.98 µM in the experiment with NCI-H460 lung; over 38.5 µM with COLO 205 colon; 0.33 µM in the experiment on LOX IMVI melanoma; over 34.4 µM in the experiment with SNB-19 CNS; 13.2 µM in the experiment on OVCAR-4 ovarian. The values for the TGI in the experiment with MCF7 breast and with RPMI-8226 leukemia were 4.24 µM and 0.0653 µM, respectively.

Turning to `COC(=O)CCCNC(=O)C(=O)c1c(O)c(O)c(C(C)C)c2cc(C)c(-c3c(C)cc4c(C(C)C)c(O)c(O)c(C(=O)C(=O)NCCCC(=O)OC)c4c3O)c(O)c12`, the GI50 is 0.379 µM in the experiment on NCI-H522 lung; 0.345 µM in the experiment on NCI-H460 lung; 0.382 µM in the experiment on COLO 205 colon; 0.537 µM in the experiment with LOX IMVI melanoma; 0.167 µM in the experiment on SNB-19 CNS; 0.23 µM in the experiment with OVCAR-4 ovarian. Also, the GI50 in the experiment with MCF7 breast was 0.641 µM; with RPMI-8226 leukemia, 0.592 µM. Also, the TGI in the experiment with NCI-H522 lung was 1.9 µM; in the experiment on NCI-H460 lung it was 3.74 µM; in the experiment with COLO 205 colon, 2.03 µM; with LOX IMVI melanoma it was 1.48 µM; with SNB-19 CNS, 7.1 µM; in the experiment on OVCAR-4 ovarian it was 27 µM. For the same molecule, the TGI is 4.71 µM in the experiment with MCF7 breast and over 32.5 µM in the experiment on RPMI-8226 leukemia.

In the case of `CN1CCN(Cc2ccc(NC(=O)c3cccc(C#Cc4c(N)ncc5ccc(F)cc45)c3)cc2C(F)(F)F)CC1`, the GI50 in the experiment with NCI-H522 lung was 0.756 µM; in the experiment with NCI-H460 lung, 0.885 µM; with COLO 205 colon, 0.737 µM; in the experiment with LOX IMVI melanoma it was 0.597 µM; in the experiment on SNB-19 CNS, 0.916 µM; in the experiment on OVCAR-4 ovarian, 0.511 µM. The GI50 with MCF7 breast is 0.768 µM; in the experiment on RPMI-8226 leukemia it was 1.03 µM. The TGI with NCI-H522 lung worked out at 1.53 µM; with NCI-H460 lung, 1.72 µM; in the experiment on COLO 205 colon, 1.66 µM; in the experiment on LOX IMVI melanoma, 1.25 µM; with SNB-19 CNS it was 1.65 µM; in the experiment with OVCAR-4 ovarian it was 1.77 µM. Also, the TGI in the experiment with MCF7 breast worked out at 1.53 µM; in the experiment with RPMI-8226 leukemia it was 2.59 µM.

With `CCOc1ncnc2ccc(Cl)c(I)c12`, the TGI with NCI-H460 lung, in the experiment with COLO 205 colon, in the experiment with LOX IMVI melanoma, in the experiment with SNB-19 CNS, in the experiment on OVCAR-4 ovarian and in the experiment on DMS 114 small cell lung was over 100 µM in each case. Besides, the TGI with RPMI-8226 leukemia and in the experiment with LXFL 529 NSCLC was over 100 µM throughout.

For the molecule `COc1ccc(C[C@H]2NC[C@H](O)[C@H]2OC(C)=O)cc1`, the TGI stood at 0.118 µM in the experiment on NCI-H522 lung; 0.611 µM in the experiment on NCI-H460 lung; 0.0256 µM with COLO 205 colon; 0.0409 µM with LOX IMVI melanoma; 0.289 µM in the experiment on SNB-19 CNS; 0.194 µM with OVCAR-4 ovarian. Further, the TGI in the experiment on MCF7 breast was determined as 0.119 µM; in the experiment on RPMI-8226 leukemia, 0.332 µM.

`OCCCCCNc1ccnc2cc(Cl)ccc12`: the TGI in the experiment on NCI-H522 lung, in the experiment with NCI-H460 lung, with COLO 205 colon, in the experiment on SNB-19 CNS, in the experiment on OVCAR-4 ovarian and in the experiment with DMS 114 small cell lung was over 100 µM in each case. For the same molecule, the TGI with RPMI-8226 leukemia and in the experiment with LXFL 529 NSCLC was over 100 µM each time.

For `Cc1nc(-n2nc(-c3ccccc3)cc2-c2ccccc2)sc1C(=O)/C=C/c1ccc(Cl)cc1`, the TGI came out at 25.9 µM in the experiment with NCI-H522 lung; 76.5 µM with NCI-H460 lung; 30.1 µM in the experiment on COLO 205 colon; 27.9 µM in the experiment on LOX IMVI melanoma; 28.3 µM in the experiment with DMS 114 small cell lung; 26.7 µM in the experiment with RPMI-8226 leukemia.

On to `Clc1nc(-c2ccccc2)nc(Cl)c1Cl`, for which the TGI is 9.95 µM with NCI-H522 lung; 42.7 µM in the experiment on NCI-H460 lung; 23 µM in the experiment on COLO 205 colon; 5.6 µM in the experiment on LOX IMVI melanoma; over 54.2 µM with SNB-19 CNS; 38.9 µM in the experiment with OVCAR-4 ovarian. Besides, the TGI was 24.5 µM in the experiment with MCF7 breast and 28.1 µM in the experiment on RPMI-8226 leukemia.

These data come from PubChem BioAssay (NCI).
